The values below come from patent US11040106B2, “Conjugates of kinase inhibitors and cyanine dyes” (priority 2018, dated 2021).

Data set [1] deals with U87-MG cells. The data set is described as follows: Cytotoxicity of ICG, MHI-148 and QCy, 72 h in the dark, AlamarBlue. Format: cell-based, human. The source says: Cytotoxicity of QCy was studied using U87-MG cells (a glioblastoma multiforme line).
In general terms: Alamar Blue is a resazurin reagent that responds to reducing activity.

Data set [2] relates to U87-MG glioblastoma cells. The data set is described as follows: Organelle localization of the fluors (confocal imaging). Format: cell-based, human. The following applies: 37° C., DMEM/F12 with 10% FBS pH 7.4; for localization after time (h) 0.5: 0.5 h; for localization after time (h) 24: 24 h.
Data set [3] concerns U87-MG cells. The data set is described as follows: Uptake and colocalization of 1-Cl and 1-HSA (confocal). Format: cell-based, human. On the procedure:
Colocalization with trackers for mitochondria, lysosome, ER and Golgi are featured. Images were taken using Zeiss confocal microscope at 60×/1.2 water immerse objective after 30 mins of incubation.
FIG. 43 are data from a set of experiments nearly identical to those in FIG. […]
Data in FIG. 42 should be compared with literature reports describing import of 1-Cl but in media containing albumin into various cells.

A further data set in a line: Photophysical properties. Type of data set: physicochemical. The following applies: 10 mM PBS buffer pH 7.4.
Data set [4] in a line: Photostability under LED irradiation at 780 nm. Format: physicochemical. The conditions noted are these: PBS pH 7.4, LED 780 nm. On the procedure:
Initially, equimolar concentrations (20 μM) were used; QCy was reproducibly and more robust than the other two, but the difference was more than anticipated so the experimental design was suspected.

The next data set in a line: Solubility in water. Type of data set: physicochemical. As to the method:
1-NMe2 is water soluble up until 1000 μM whereas 1-CH2 precipitates at 100 μM.

Data set [5] concerns the target T1, HSA (Homo sapiens, UniProt P02768). Briefly: Covalent binding / reaction of cyanines with HSA (LC/MS, ESI MS, NIR-fluorescent gel). The following applies: HEPES buffer pH 7.4, 37° C. On the procedure: FIGS. 33A to 33D show kinetics of a, 1, c, 4, d, 5; e, 6 in 1 M HEPES buffer pH 7.4. […] The kinetics was examined on C, 18 column using Agilent 1200 series LC/MS at 600 nm.
FIGS. 34A and 34B show mass spectra of a, free HSA and b, 1 bound to HSA. HSA: 1 (2.5:1); buffer 1 M HEPES.
In a control experiment, human serum albumin (HSA) was reacted with 2.5 equivalents of 1-Cl at 37° C. in 1 M HEPES buffer. This 1-Cl:albumin molar ratio was selected because it is approximately that used in cell culture experiments to probe uptake of this dye.
To test this assertion the experimental design was modified in the following way.

In data set [6] the target is T1, HSA. The description is as above.
The test system of data set [7] is HEPG2 cells. The data set is described as follows: Cytotoxicity (cell viability, MTT assay) on HEPG2 cells. Type of data set: cell-based. The following applies: HEPG2 cells (liver cancer). As to the method: Approximately 5000 HEPG2 cells/well were seeded on 96 well plate containing 10% fetal bovine serum. Cells were allowed to adhere overnight before test compounds were added. Stock solutions of 1a (0.02 M in DMSO) were diluted with protein-free medium (PFHM-II) to make desired final concentrations varying from 0.01 to 80 μM. The cells were incubated with the desired concentration for 48 h. The cell viabilities were calculated using MTT assay. Briefly, 20 μL of 3-(4,5-dimethylthiazol-2-yl)-2,5-diphenyltetrazolium bromide MTT (5 mg/mL, in Hank's balanced salt solution) were added and the cells were incubated for an additional 3.5 h. The medium was then removed, and […] of DMSO was added to dissolve the formazan crystal formed. The optical density of each well (at 570 nm) was measured with a BioTek Synergy 4 Microplate Reader. The viability of each cell line in response to the treatment with tested compounds was calculated as: % dead cells=100−(OD treated/OD control)×100.
In general terms: Tetrazolium dyes change colour on reduction, which living cells bring about.

Data set [8] concerns U87-MG cells. The data set is described as follows: Cytotoxicity (cell viability) on U87-MG cells. Type of data set: cell-based. The following applies: for cytotoxicity compared with parent dye, parent kinase inhibitor (and their mixture): U87-MG cells (glioblastoma).
Data set [9] deals with U87-MG (Glioblastoma) cells as compared to HUVEC (normal cells). The data set is described as follows: Uptake by U87-MG cells as compared to HUVEC. Format: cell-based, human.
In data set [10] the test system is HEPG2 cells. Briefly: 1a in HEPG2 cells: morphology change and co-localization in organelles. Format: cell-based. The source says: FIG. 5A visualizes some of the data from FIGS. 4A and 4B (that on HEPG2 cells).
Localization of compounds in mitochondria tends to give more pronounced cytotoxicity effects than accumulation in most organelles.

Data set [11] concerns MDA-MB-231 “triple negative” breast cancer cells. The data set is described as follows: Cytotoxicity (cell viability) on MDA-MB-231 cells. Format: cell-based. The conditions noted are these: MDA-MB-231 (breast cancer cells).

Entries after “also recorded” stand apart in the source; their conditions may differ.

T1 sequence (P02768 25-609): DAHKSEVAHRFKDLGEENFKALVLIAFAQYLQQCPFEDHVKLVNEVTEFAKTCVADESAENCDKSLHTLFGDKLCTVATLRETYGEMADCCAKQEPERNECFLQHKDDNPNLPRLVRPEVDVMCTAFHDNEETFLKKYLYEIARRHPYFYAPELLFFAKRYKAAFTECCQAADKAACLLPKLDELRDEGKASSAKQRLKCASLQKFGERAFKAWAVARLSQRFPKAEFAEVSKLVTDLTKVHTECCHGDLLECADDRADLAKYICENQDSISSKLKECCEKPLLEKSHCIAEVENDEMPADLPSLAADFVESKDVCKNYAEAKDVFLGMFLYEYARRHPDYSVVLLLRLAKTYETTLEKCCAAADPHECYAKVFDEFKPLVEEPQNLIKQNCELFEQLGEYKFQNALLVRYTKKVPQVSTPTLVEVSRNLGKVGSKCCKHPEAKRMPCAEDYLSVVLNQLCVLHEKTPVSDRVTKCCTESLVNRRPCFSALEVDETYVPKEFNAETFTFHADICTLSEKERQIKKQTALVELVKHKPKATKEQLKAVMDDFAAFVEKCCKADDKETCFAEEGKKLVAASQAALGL

As for `CC1(C)C(/C=C/C2=C(Cl)C(=C/C=C3\N(CCCCCC(=O)O)c4ccccc4C3(C)C)/CCC2)=[N+](CCCCCC(=O)O)c2ccccc21` [Compound 1], the midpoint of inhibition in the data set with U87-MG cells [1], the IC50, lay at 19.1 ± 1.01 µM. Moreover, in [2], the “localization after time (h) 0.5” value is “mitochondria”; the “localization after time (h) 24” value was “mitochondria and lysosome”. Further, in the data set with U87-MG cells [3] (20 μM, serum free media, 30 mins, listed as 1-Cl), the “organelle colocalization after uptake” value is listed as “localized in the mitochondria; also recorded: Most colocalization is seen with the mitochondria”. Further, the “organelle localization after uptake” value with U87-MG cells [3] (media containing albumin) was “fluorescence was observed mostly in the mitochondria”. Besides, in the data set “Photophysical properties”, the “brightness (εmax × Φ)” value is 3689, the “Δλ (Stokes' shift)” value stood at 24 nm, the εmax came to 149940 cm^−1M^−1 and the λabs is 775 nm. For the same compound, the λem in the data set “Photophysical properties” turned out to be 799 nm. Further, in the data set “Photophysical properties” (relative to ICG), the relative brightness stood at 1.90. Moreover, the “Φ (fluorescence quantum yield)” value in the data set “Photophysical properties” (standard A (Φ = 0.13 in DMSO)) worked out at 0.025. The “photostability (in words)” value in data set [4] is “the least stable”. For the same compound, the “concentration at which it precipitates” value in the data set “Solubility in water” is 100 µM. In addition, the “covalent binding / reaction with HSA” value at HSA [5] is on record as “showed an increase in peak with HSA; also recorded: HSA is bound to 1; also recorded: binds to HSA at cysteine 34 position”. For the same compound, the “covalent binding / reaction with HSA” value at HSA [5] (listed as 1-Cl) is 1:1 covalent adduct and does combine with HSA. Further, the “binding to thiol-blocked HSA (TCEP, then 6-maleimide hexanoic acid)” value on HSA [6] (15 μM HSA, 15 μM dye) is reported as “did not bind to 1-Cl”. For the same compound, on HSA [6] (0.5 mM HSA, 0.2 mM 1-Cl, 1 M HEPES pH 7.4, 37° C.), the “consumption in reaction with HSA” value is given as “nearly all the 1-Cl is consumed after 72 h”.

`Cc1nc(Nc2ncc(C(=O)Nc3c(C)cccc3Cl)s2)cc(N2CCN(CCOC(=O)CCCCCN3C(=CC=C4CCCC(C=CC5=[N+](CCCCCC(=O)O)c6ccccc6C5(C)C)=C4Cl)C(C)(C)c4ccccc43)CC2)n1` [Compound 1a]: the “cytotoxicity compared with parent dye, parent kinase inhibitor (and their mixture)” value in the data set with HEPG2 cells [7] is “more found to be toxic than individual 1, a or a combination of 1+a; also recorded: significantly more toxic than the parent dye, the parent kinase inhibitor, or a mixture of the dye and kinase inhibitor”; in the data set with U87-MG cells [8], “more found to be toxic than individual 1, a or a combination of 1+a; also recorded: significantly more toxic than the parent dye, the parent kinase inhibitor, or a mixture of the dye and kinase inhibitor”. Besides, the “cytotoxicity compared with ICG-COOH conjugate” value in the data set on U87-MG cells [8] (U87-MG, 24 and 48 h) was “more toxic than ICG-COOH-a”. The “uptake by U87-MG cells compared to HUVEC” value in data set [9] is on record as “localizes more in U87-MG cells than HUVEC cells”. Further, the organelle localization result in the data set with HEPG2 cells [10] (HEPG2) is “localizes preferentially in mitochondria”. The “influence on cell morphology compared with dasatinib a” value in the data set on HEPG2 cells [10] (HEPG2, 24 and 48 h) is “much stronger influence on the cell morphology”.

Take `CN(C)C(=O)c1cc2cnc(Nc3ccc(N4CCN(C(=O)CCCCCN5/C(=C/C=C6\CCCC(/C=C/C7=[N+](CCCCCC(=O)[O-])c8ccccc8C7(C)C)=C6Cl)C(C)(C)c6ccccc65)CC4)cn3)nc2n1C1CCCC1` [Compound 1c]: in data set [11], the “cytotoxicity compared with parent dye, parent kinase inhibitor (and their mixture)” value was “more found to be toxic than individual 1, c or a combination of 1+c; also recorded: significantly more toxic than the parent dye, the parent kinase inhibitor, or a mixture of the dye and kinase inhibitor”.

On to `CC(Oc1cc(-c2cnn(C3CCN(C(=O)CCCCCN4C(=CC=C5CCCC(C=CC6=[N+](CCCCCC(=O)[O-])c7ccccc7C6(C)C)=C5Cl)C(C)(C)c5ccccc54)CC3)c2)cnc1N)c1c(Cl)ccc(F)c1Cl` (stereo not shown) [Compound 1d], for which the “cytotoxicity compared with parent dye, parent kinase inhibitor (and their mixture)” value in data set [11] is “more found to be toxic than individual 1, d or a combination of 1+d; also recorded: significantly more toxic than the parent dye, the parent kinase inhibitor, or a mixture of the dye and kinase inhibitor”.

With `CC(=O)c1c(C)c2cnc(Nc3ccc(N4CCN(C(=O)CCCCCN5C(=CC=C6CCCC(C=CC7=[N+](CCCCS(=O)(=O)[O-])c8ccccc8C7(C)C)=C6Cl)C(C)(C)c6ccccc65)CC4)cn3)nc2n(C2CCCC2)c1=O` [Compound 3b], in the data set on U87-MG cells [8], the “cytotoxicity compared with parent dye, parent kinase inhibitor (and their mixture)” value is recorded as “more toxic than b or 3”.

For `CC1(C)C(/C=C/C2=CC(=C/C=C3/N(CCCCCC(=O)O)c4ccccc4C3(C)C)/CCC2)=[N+](CCCCCC(=O)[O-])c2ccccc21` [Compound 4], the “covalent binding / reaction with HSA” value was “did not bind” at HSA [5] and “do not react with HSA” on HSA [5] (listed as 1-H).

For the compound `CC1=C(/C=C/C2=[N+](CCCCCC(=O)[O-])c3ccccc3C2(C)C)CCC/C1=C\C=C1\N(CCCCCC(=O)O)c2ccccc2C1(C)C` [Compound 5], the “covalent binding / reaction with HSA” value at HSA [5] is listed as “did not bind”; on HSA [5] (listed as 1-Me), “do not react with HSA”.

`CC1(C)C(/C=C/C2=C(c3ccccc3)C(=C/C=C3/N(CCCCCC(=O)O)c4ccccc4C3(C)C)/CCC2)=[N+](CCCCCC(=O)[O-])c2ccccc21` [Compound 6]: the “covalent binding / reaction with HSA” value on HSA [5] (listed as 1-Ph) was “do not react with HSA”.

Take Indocyanine green [ICG]: in data set [2], the “localization after time (h) 0.5” value is “golgi and ER”; the “localization after time (h) 24” value was “golgi and lysosome”.
